From ChEMBL document CHEMBL3351322, “Study the interactions between human serum albumin and two antifungal drugs: fluconazole and its analogue DTP” (Bioorg Med Chem Lett, 2014)

Assays:
Type in all cases: ADME
Albumin [1] = molecular target: T1, Albumin (Homo sapiens, UniProt P02768); assay: Ratio of binding constant for human serum albumin in presence of Ba2+ to binding constant for human serum albumin in absence of metal ions
Albumin [2] = molecular target: T1, Albumin; assay: Ratio of binding constant for human serum albumin in presence of La3+ to binding constant for human serum albumin in absence of metal ions
Albumin [3] = molecular target: T1, Albumin; assay: Ratio of binding constant for human serum albumin in presence of Co2+ to binding constant for human serum albumin in absence of metal ions
Albumin [4] = molecular target: T1, Albumin; assay: Ratio of binding constant for human serum albumin in presence of Zn2+ to binding constant for human serum albumin in absence of metal ions
Albumin [5] = molecular target: T1, Albumin; assay: Ratio of binding constant for human serum albumin in presence of Ni2+ to binding constant for human serum albumin in absence of metal ions
Albumin [6] = molecular target: T1, Albumin; assay: Ratio of binding constant for human serum albumin in presence of Mg2+ to binding constant for human serum albumin in absence of metal ions
Albumin [7] = molecular target: T1, Albumin; assay: Ratio of binding constant for human serum albumin in presence of Cu2+ to binding constant for human serum albumin in absence of metal ions
Albumin [8] = molecular target: T1, Albumin; assay: Binding affinity to human serum albumin at 0.4 to 5.6 x 10' -5 M by UV-Vis spectroscopy; conditions: isolated protein
Albumin [9] = molecular target: T1, Albumin; assay: Ratio of binding constant for human serum albumin in presence of Mn2+ to binding constant for human serum albumin in absence of metal ions
Albumin [10] = molecular target: T1, Albumin; assay: Ratio of binding constant for human serum albumin in presence of Fe3+ to binding constant for human serum albumin in absence of metal ions
Albumin [11] = molecular target: T1, Albumin; assay: Ratio of binding constant for human serum albumin in presence of Cr3+ to binding constant for human serum albumin in absence of metal ions

T1 sequence (P02768 whole entry): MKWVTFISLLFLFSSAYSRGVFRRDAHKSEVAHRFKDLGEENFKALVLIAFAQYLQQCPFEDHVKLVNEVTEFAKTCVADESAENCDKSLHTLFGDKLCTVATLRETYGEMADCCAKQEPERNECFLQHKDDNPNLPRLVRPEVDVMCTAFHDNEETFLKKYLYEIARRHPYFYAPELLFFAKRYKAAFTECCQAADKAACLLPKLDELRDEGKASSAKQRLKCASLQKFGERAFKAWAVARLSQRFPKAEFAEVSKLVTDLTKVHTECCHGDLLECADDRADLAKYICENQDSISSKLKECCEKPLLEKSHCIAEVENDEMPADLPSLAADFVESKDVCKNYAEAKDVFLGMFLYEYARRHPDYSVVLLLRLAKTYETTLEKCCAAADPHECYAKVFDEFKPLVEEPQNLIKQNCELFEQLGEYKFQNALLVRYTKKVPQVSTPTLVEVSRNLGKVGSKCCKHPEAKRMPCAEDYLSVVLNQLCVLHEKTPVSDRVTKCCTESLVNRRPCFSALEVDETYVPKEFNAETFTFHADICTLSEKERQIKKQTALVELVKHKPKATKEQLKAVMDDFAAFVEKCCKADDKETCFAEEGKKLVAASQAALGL

OC(Cn1cncn1)(Cn1cncn1)c1ccc(F)cc1F [FLUCONAZOLE]
Ratio (Albumin [1]): 0.956
Ratio (Albumin [2]): 0.905
Ratio (Albumin [3]): 0.945
Ratio (Albumin [4]): 1.11
Ratio (Albumin [5]): 0.857
Ratio (Albumin [6]): 1.081
Ratio (Albumin [7]): 0.961
Activity (Albumin [8]): Active
Ratio (Albumin [9]): 0.868
Ratio (Albumin [10]): 0.741
Ratio (Albumin [11]): 0.866

OC(Cn1cncn1)(Cn1cncn1)c1ccc(Cl)cc1Cl
Activity (Albumin [8]): Active
